Patent US20120059034A1, “NOVEL CRYSTALLINE HYDRATE, AMORPHOUS AND POLYMORPHIC FORMS OF DIHYDRO-BENZOXAZOLE-6-YL-ACETAMIDE DERIVATIVE AND PROCESSES FOR THEIR PREPARATION” (priority 2009, published 2012)

How the values were obtained:
[1] = Relative thermodynamic stability, conversion of solid forms in suspension; format: physicochemical; conditions: room temperature
Protocol: (§1) (IV) a DSC trace substantially in accordance with FIG. 5; • Characteristic diffraction and spectroscopic data of radiprodil anhydrate Form A are as follows: 1. Characteristic XRPD reflections of radiprodil anhydrate Form A are the following: 7.8, 22.0, 23.7, 27.0 and 27.6±0.2° 2 θ 2. Characteristic IR absorption bands of radiprodil anhydrate Form A are the following: 3295, 2863, 1852, 1768, 1058 and 635±4 cm^−1. 3. Characteristic Raman absorption bands of radiprodil anhydrate Form A are the following: 3106, 1680, 1641, 1470, 1274 and 507±4 cm^−1. […] All the other discovered solid forms can be converted to anhydrate Form A in suspension. This conversion takes place in absolute ethanol or in ethanol:water mixtures within a few hours. This relative stability advantage of anhydrous Form A of radiprodil can be favorably utilized in the development of active ingredient as well as dosage forms that are sufficiently stable both chemically and physically during extended shelf life. […] Due to its physical stability and non-hygroscopic character this polymorphic form is particularly advantageous in dosage formulation processes where the active ingredient is exposed to water during the process, such as wet granulation.

[2] = Hygroscopicity, weight gain at elevated humidity; format: physicochemical; conditions: 50° C./90% RH, 10 days
Protocol: as §1

[3] = Pharmacokinetic profile in dogs (plasma concentrations by validated HPLC(UV) method); format: in vivo; conditions: 5 mg/kg dose adjusted to the anhydrous active substance, plasma samples up to 24 hours post dose
Protocol: Another essential value of the dihydrate Form is the observed better pharmacokinetic profile in dogs compared to the anhydrate Form A. Both forms in 5 mg/kg dose adjusted to the anhydrous active substance were administered to dogs and relevant pharmacokinetic parameters (AUC, Cmax) were calculated from the plasma profiles of the individual animals. The animals were […] seventeen hours before and six hours after drug administration. Plasma concentrations were measured in the trial samples taken up to 24 hours post dose by a validated HPLC(UV) method.

[4] = Stress stability of the solid form (chemical impurities and physical form); format: physicochemical; conditions: stress conditions 25° C./75% RH; 50° C.; 50° C./oxygen; 50° C./75% RH; 50° C./90% RH; 75° C.; 75° C./oxygen, 10 days
Protocol: as §1

[5] = Thermal stability, loss of water of hydration at 50° C. in N2 atmosphere; format: physicochemical
Protocol: (§2) 1. Characteristic reflections of radiprodil monohydrate are the followings: 4.9, 15.1, 18.1, 26.8 and 30.2±0.2° 2θ 2. Characteristic IR absorption bands of radiprodil monohydrate are the followings: 3644, 1836, 1809, 1789, 1645 and 919±4 cm^−1. 3. Characteristic Raman absorption bands of radiprodil monohydrate are the followings: 2887, 1642, 1484, 1295 and 726±4 cm^−1. […] While the dihydrate Form can be dehydrated relatively easily at elevated temperature, the monohydrate Form is sufficiently stable under such conditions. […] This relative stability of the monohydrate Form compared to the dihydrate Form is advantageous in formulation technological steps involving elevated temperatures.

[6] = Solubility and dissolution rate of solid forms; format: physicochemical
Protocol: as §2
(§3) 1. There are no reflections on XRPD pattern of radiprodil amorphous form. 2. Characteristic IR absorption bands of radiprodil amorphous form are the followings: 3275, 1768, 1685, 1219 and 544±4 cm^−1. 3. Characteristic Raman absorption bands of radiprodil amorphous are the followings: 3071, 1687, 1640, 1414, 1280 and 852±4 cm^−1. […] One particular advantage of the discovered amorphous Form is that it is relatively stable.

[7] = Storage stability of the amorphous form against crystallization; format: physicochemical; conditions: normal laboratory conditions, several months
Description: as §3

O=C(Nc1ccc2[nH]c(=O)oc2c1)C(=O)N1CCC(Cc2ccc(F)cc2)CC1 [anhydrate Form A, 2-[4-(4-Fluorobenzyl)-piperidin-1-yl]-2-oxo-N-(2-oxo-2,3-dihydro-benzoxazol-6-yl)-acetamide anhydrate Form A]
thermodynamic stability among the discovered forms [1]: thermodynamically most stable form | weight gain (hygroscopicity) [2]: did not show measurable weight gain | AUC24 [3]: 1554 ng·h/mL | Cmax [3]: 125 ng/mL | change of sum of chemical impurities and of physical form compared to the starting material [4]: neither the sum of chemical impurities nor the physical form has changed

O=C(Nc1ccc2[nH]c(=O)oc2c1)C(=O)N1CCC(Cc2ccc(F)cc2)CC1 [dihydrate Form, 2-[4-(4-Fluorobenzyl)-piperidin-1-yl]-2-oxo-N-(2-oxo-2,3-dihydro-benzoxazol-6-yl)-acetamide dihydrate]
time to loss of water of hydration [5]: 2 h | AUC24 ([3]; dihydrate): 4491 ng·h/mL | Cmax ([3]; dihydrate): 395 ng/mL

O=C(Nc1ccc2[nH]c(=O)oc2c1)C(=O)N1CCC(Cc2ccc(F)cc2)CC1 [monohydrate Form, 2-[4-(4-Fluorobenzyl)-piperidin-1-yl]-2-oxo-N-(2-oxo-2,3-dihydro-benzoxazol-6-yl)-acetamide monohydrate]
weight loss (water of hydration) ([5]; same conditions as dihydrate Form (2 hours)): does not show detectable weight loss | solubility compared to anhydrate Form A [6]: greater solubility

O=C(Nc1ccc2[nH]c(=O)oc2c1)C(=O)N1CCC(Cc2ccc(F)cc2)CC1 [amorphous Form, 2-[4-(4-Fluorobenzyl)-piperidin-1-yl]-2-oxo-N-(2-oxo-2,3-dihydro-benzoxazol-6-yl)-acetamide amorphous form]
crystallization on storage [7]: without crystallization | dissolution rate among the solid forms [6]: largest | solubility among the solid forms [6]: largest
